Reference: patent US11395835B2, “Use of common gamma chain cytokines for the visualization, isolation and genetic modification of memory T lymphocytes” (OSPEDALE SAN RAFFAELE S.R.L., priority 2005, dated 2022)

Key:
[1] = tested on: CD4+ T cells from tumor-draining LN of TS/A-LACK tumor-bearing 16.2β mice; assay: IL-7-driven accumulation of fast-proliferating memory CD4+ T cells with inhibitors; assay type: cell-based; conditions: IL-7-driven cultures, 7 days
Source text: FIG. 11. Intermediate memory CD4^+ T cells accumulate in the presence of IL-7 in a cell-density dependent, CsA-sensitive manner. Cells derived from the axillary, brachial and inguinal LN of naïve (A, B) and TS/A-LACK tumor-bearing (C-E) 16.20 mice were labeled with CFSE and respectively cultured for 7 days in plain medium, in the presence of LACK peptide (Ag) (A, B) or IL-7 (C-E) in the absence (nil) or in the presence of the indicated inhibitors. At the end of the culture the cells were stimulated for 5 h with L/28 aAPCs, and intracellular cytokine release was determined. A-D) Histograms show the CFSE dilution profile of equivalent numbers of (7×10^4) CD4^+ T cells. In A and C the thin lines reflect the CFSE profile of CD4+ T cells cultured in plain medium, while the thick lines depict the CFSE profile of CD4+ T cells cultured in Ag or IL-7, respectively. […]
(§1) 5 μm polystyrene sulfate latex beads (Interfacial Dynamics) were coated with I-A^d/LACK dimers (20 μg/ml) and anti-CD28 mAb (37.51; 2 μg/ml) (LACK aAPC) or with anti-CD28 mAb only (control aAPC). Coating of the proteins was monitored by flow cytometry analysis. […] The total number of Ag-specific IL-2^+/IFN-γ^+ T cells was determined by multiplying the percentage by the total number of Trypan Blue-negative LN cells.

[2] = tested on: naïve CD4+ T cells of 16.2β mice stimulated with LACK-pulsed APC; assay: Ag-driven proliferation of naive T cells with inhibitors (CFSE); assay type: cell-based; conditions: 7 days
Source text: FIG. 11. Intermediate memory CD4^+ T cells accumulate in the presence of IL-7 in a cell-density dependent, CsA-sensitive manner. Cells derived from the axillary, brachial and inguinal LN of naïve (A, B) and TS/A-LACK tumor-bearing (C-E) 16.20 mice were labeled with CFSE and respectively cultured for 7 days in plain medium, in the presence of LACK peptide (Ag) (A, B) or IL-7 (C-E) in the absence (nil) or in the presence of the indicated inhibitors. At the end of the culture the cells were stimulated for 5 h with L/28 aAPCs, and intracellular cytokine release was determined. A-D) Histograms show the CFSE dilution profile of equivalent numbers of (7×10^4) CD4^+ T cells. In A and C the thin lines reflect the CFSE profile of CD4+ T cells cultured in plain medium, while the thick lines depict the CFSE profile of CD4+ T cells cultured in Ag or IL-7, respectively. In B and D, thin line: cells cultured in the absence of the inhibitor, thick line: cells cultured in the presence of the inhibitor. E) Dot plots are shown after gating on viable CD4^+ T cells. Percentages indicate the frequency of LACK-specific cytokine secreting cells.
Twenty days after tumor cell injection mice were sacrificed and the axillary, brachial and inguinal peripheral lymph nodes (LN) draining and distal (non draining LN) to the site of tumor growth were recovered. […]

[3] = tested on: AH-1-specific CD8+ T cells; assay: Cytokine-driven culture of tumor-draining LN, AH-1-specific intracellular cytokine release; assay type: cell-based, BALB/c mice; conditions: 7 days culture without Ag re-stimulation; undetectable ex vivo
Description: FIG. 10. IL-7 favors the accumulation of tumor-specific memory CD8^+ T cells otherwise undetectable ex vivo. A) BALB/c mice (5 mice per group) were challenged with 3×10^5 TS/A-LACK tumor cells and sacrificed 21 days later. Cells from pools of tumor draining LN (A-C) were analyzed ex vivo (A) and after 7 days in culture in the absence or in the presence of IL-7, IL-2, IL-15, IL-6 (B-C). A) Representative dot plots depict IL-2 and IFN-γ production by KJ1.26^− CD8^+ T cells. The frequency (A, B) and total number (C) of AH-1-specific cytokine-producing KJ1.26^− CD8^+ T cells is reported.
(§2) Twenty days after tumor cell injection mice were sacrificed and the axillary, brachial and inguinal peripheral lymph nodes (LN) draining and distal (non draining LN) to the site of tumor growth were recovered. In the experiments of dendritic cell (DC) vaccination, mice were sacrificed fourteen days after DC administration and the axillary, brachial and inguinal LN were surgically excised. […]
as §1

[4] = tested on: CD4+ T cells from TS/A-LACK tumor draining LN; assay: Bcl-2 expression in CFSE-labeled LN cultures maintained in cytokines; assay type: cell-based, mice; conditions: 7 days culture with the cytokine alone
Source text: (§3) FIG. 5. IL-7 and IL-2 favor T cell survival and the optimal expression of Bcl-2. Cells from TS/A-LACK tumor draining LN were labeled with the CFSE vital dye and cultured in the absence (−) or in the presence of IL-7, IL-2, IL-15 and IL-6 alone. After 7 days, cells were recovered and stained with anti-CD4 mAb and TO-PRO-3 (A) and with anti-Bcl-2 mAb (B, C). A) representative dot plots of total CD4^+ cells are shown. The frequencies of total CD4^+ TOPRO-3^+ (brackets) and of CFSE dim, TO-PRO-3″ cells (bold) are reported. B-C) events are shown after physical gating on viable CD4^+ T lymphocytes. C) thin line: isotype control; thin lines-shaded profile: anti-Bcl-2 Ab, medium cultured cells; thick lines: anti-Bcl-2 Ab, cytokine-cultured cells. The experiment is representative of 2 independent determinations.
FIG. 6. Phenotype and subset representation of lymphocytes maintained in IL-7 and IL-2. CFSE-labeled TS/A-LACK-tumor-draining LN cultures were maintained for a week in the presence of IL-7 or IL-2. Thereafter the cells were stained with anti CD4, CD44, CD25, CD127, and CD132 mAbs. A) representative dot plots report the expression levels of CD44, CD62L, CD25, CD127, and CD132 of viable CD4+. B) overlay of CD4^+, CFSE dim cells derived from IL-7 (thin lines) and IL-2 (thick lines) cultures in the absence of Ag-stimulation are shown. […]

[5] = tested on: LACK-specific CD4+ T cells from LN of TS/A-LACK tumor-bearing BALB/c mice; assay: Ag-free short-term culture: I-Ad/LACK multimer staining, LACK-specific intracellular cytokine release, CFSE dilution; assay type: cell-based; conditions: CFSE-labeled LN cells, 7 days, versus nil cultures
Description: Twenty days after tumor cell injection mice were sacrificed and the axillary, brachial and inguinal peripheral lymph nodes (LN) draining and distal (non draining LN) to the site of tumor growth were recovered. In the experiments of dendritic cell (DC) vaccination, mice were sacrificed fourteen days after DC administration and the axillary, brachial and inguinal LN were surgically excised. LN cells were cultured in 24 well plates at the density of 5×10^6 in complete medium in the absence or in the presence of recombinant murine IL-7 (200 ng/ml), IL-2 (20 ng/ml), IL-6 (45 ng/ml), or IL-15 (100 ng/ml) (all from Peprotech). In parallel cultures, cells were in vitro stimulated with the LACK-derived MHC II-restricted peptide (5 (25)) and 5×10^6 irradiated syngeneic splenocytes. As a control similar cultures were set up from syngeneic naïve mice. […]
as §1

[6] = tested on: CD4+ T cells from TS/A-LACK tumor draining LN; assay: TO-PRO-3 viability of CFSE-labeled LN cultures maintained in cytokines; assay type: cell-based, mice; conditions: total CD4+ cells, after a week in culture with the cytokine alone
Source text: as §3, §2

| Compound | effect on IL-7-driven accumulation of fast-dividing CFSEdim CD4+ T cells and LACK-specific cells [1] | effect on Ag-driven T cell proliferation [2] | frequency and total number of AH-1-specific CD8+ T cells [3] | CD4+ T cells expressing optimal (high) Bcl-2 levels [4] [%] | in vitro proliferation of CD4+ T cells and accumulation of LACK-specific CD4+ T cells [5] | TO-PRO-3+ dead cells [6] [%] |
| --- | --- | --- | --- | --- | --- | --- |
| Oc1ccc(-c2nc(-c3ccncc3)c(-c3ccc(F)cc3)[nH]2)cc1 [SB202190] | only partially inhibited | failed to inhibit |  |  |  |  |
| CC(C)(C)n1nc(-c2ccc(Cl)cc2)c2c(N)ncnc21 [PP2] | only partially inhibited |  |  |  |  |  |
| IL-6: recombinant IL-6 used as negative control cytokine |  |  | not increased | 10.5 | failed to support | 73 |
